Laboratory results from paper PMC9085681, “Towards Optimized Bioavailability of ^99mTc-Labeled Barbiturates for Non-invasive Imaging of Matrix Metalloproteinase Activity” (Molecular Imaging and Biology, 2021).
Where a name gives a salt, the structure may show the parent alone. Read-outs that look alike come from different tables or passages of the source.

Assays:
[1] = distribution coefficient (logDexp), 1-octanol / PBS-buffer; assay type: physicochemical; conditions: 1-octanol / PBS-buffer pH = 7.4, 99mTc-labeled compound
Procedure: The serum stability of all radiolabeled compounds was evaluated by incubation in human and murine serum at 37 °C for up to 120 min and analyzed by HPLC. The distribution coefficients (logDexp) were determined in a two-phase system consisting of 1-octanol and PBS-buffer (pH = 7.4) according to the literature.
Following a method described by Prante et al.[13], the distribution coefficient (logDexp) of the radioactive compound was determined in a two-phase system consisting of 1-octanol and PBS-buffer (pH = 7.4) to determine the lipophilicity. For this purpose, the corresponding ligand (~ 20 kBq) was dissolved in buffer (500 μL). 1-Octanol (500 μL) was added and the mixture was shaken at room temperature for 1 min. To achieve phase separation, the system was centrifuged for 2 min at 3000 rpm. Subsequently a part of the octanol phase (400 μL) was removed and buffer (400 μL) was added. The combined phases were shaken and layers were separated according to the description above. Aliquots of the buffer and octanol layers (3 × 100 μL from every layer) were taken to measure radioactivity in a γ-counter. The measurement provided the activity in counts per minute (cpm), the values were decay corrected. By calculating the quotient of cpm (1-Octanol)cpm (PBS) the logDexp can be determined as logcpm (1-Octanol)cpm (PBS).

[2] = target: MMP-13 (Homo sapiens, UniProt P45452); assay: in vitro MMP inhibition assay (fluorogenic substrate, protocol of Huang et al.); assay type: biochemical
Procedure: (§1) In order to evaluate the affinity of the new barbiturate-based compounds towards MMPs, an in vitro inhibition study was performed. The IC50-values were determined for MMP-2, MMP-8, MMP-9, MMP-13, and […] using the protocol from Huang et al. Additionally, the corresponding precursors were also measured and outlined in the SI for comparison.
(§2) To determine the relative potency of new inhibitors in terms of IC50-values the method developed by Huang et al. was applied in an in vitro inhibition study.[14] Compounds of interest were evaluated regarding affinity to MMP-2, -8, -9, -13 and -14 using the artificial MMP-substrate (7-Methoxycoumarine-4-yl)-acetyl-Pro-Leu-Gly-Leu-[3-(2,4-dinitrophenyl)-l-2,3-diaminopropionyl]-Ala-Arg-NH2 (R&D Systems, Minneapolis, USA). The activated form of the corresponding MMPs (2 nM each) were incubated at 37 °C with the barbiturate derivatives in different concentrations (10 pM-1 mM) in TRIS-buffer (50 mM, pH = 7.5), sodium chloride (0.2M), calcium chloride (5 mM), zinc sulfate (20 µM) and Brij® (0.05%) for 30 min. Samples of this mixture (90 µL) were added to the substrate (50 µM, 10 µL) at 37 °C and the increase of fluorescence as a function of time was measured using a TriStar² LB 942 Analyzers (Berthold Technologies, λEx = 330 nm, λEm = 390 nm). The linear change of relative fluorescence after 10 min was plotted as a function of the concentration of the used inbhibitor. The IC50-values were determined by non-linear regression using the Grace 5.1.8 software (Linux).

[3] = target: T1, MMP-2 (Homo sapiens, UniProt P08253); assay: as above; assay type: biochemical
T1 sequence (P08253 110-660): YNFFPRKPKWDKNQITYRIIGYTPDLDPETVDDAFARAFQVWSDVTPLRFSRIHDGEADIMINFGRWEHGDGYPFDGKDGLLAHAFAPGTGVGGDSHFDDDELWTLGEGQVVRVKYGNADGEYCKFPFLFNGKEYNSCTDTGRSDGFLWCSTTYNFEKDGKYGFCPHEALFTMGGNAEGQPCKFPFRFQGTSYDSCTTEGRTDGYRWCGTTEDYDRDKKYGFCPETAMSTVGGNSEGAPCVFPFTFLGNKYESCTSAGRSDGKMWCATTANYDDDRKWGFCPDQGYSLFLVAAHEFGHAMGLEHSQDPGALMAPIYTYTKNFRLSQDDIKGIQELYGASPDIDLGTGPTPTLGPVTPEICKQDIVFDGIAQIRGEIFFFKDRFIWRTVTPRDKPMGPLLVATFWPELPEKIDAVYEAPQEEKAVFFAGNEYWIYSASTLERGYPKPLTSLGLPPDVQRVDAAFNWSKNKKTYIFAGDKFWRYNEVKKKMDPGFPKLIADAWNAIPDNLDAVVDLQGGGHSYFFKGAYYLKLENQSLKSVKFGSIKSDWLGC
Procedure: as §1, §2

[4] = target: MMP-9 (Homo sapiens, UniProt P14780); assay: as above; assay type: biochemical
Procedure: as §1, §2

[5] = target: MMP-14 (Homo sapiens, UniProt P50281); assay: as above; assay type: biochemical
Procedure: as §1, §2

[6] = target: MMP-8 (Homo sapiens, UniProt P22894); assay: as above; assay type: biochemical
Procedure: as §1, §2

[7] = activated MMP 2 nM, 37 °C, 30 min preincubation, non-radioactive compound, read-out: IC50 MMP-13
[8] = activated MMP 2 nM, 37 °C, 30 min preincubation, non-radioactive compound, read-out: IC50 MMP-2
[9] = activated MMP 2 nM, 37 °C, 30 min preincubation, non-radioactive compound, read-out: IC50 MMP-9
[10] = activated MMP 2 nM, 37 °C, 30 min preincubation, non-radioactive compound, read-out: IC50 MMP-14
[11] = activated MMP 2 nM, 37 °C, 30 min preincubation, non-radioactive compound, read-out: IC50 MMP-8

MMP-8, sequence (P22894 101-467, species assumed): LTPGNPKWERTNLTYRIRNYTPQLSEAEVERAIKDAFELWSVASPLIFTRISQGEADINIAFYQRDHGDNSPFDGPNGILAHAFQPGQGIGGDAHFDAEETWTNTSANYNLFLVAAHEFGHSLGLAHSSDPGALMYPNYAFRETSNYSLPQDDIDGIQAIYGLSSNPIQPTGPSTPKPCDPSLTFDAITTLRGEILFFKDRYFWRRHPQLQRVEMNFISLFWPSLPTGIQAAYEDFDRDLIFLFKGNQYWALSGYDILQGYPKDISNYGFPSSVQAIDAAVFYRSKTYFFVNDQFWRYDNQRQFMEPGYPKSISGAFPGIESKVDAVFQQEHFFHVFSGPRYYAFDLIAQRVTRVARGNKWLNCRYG
MMP-9, sequence (P14780 107-707 limits assumed, species assumed): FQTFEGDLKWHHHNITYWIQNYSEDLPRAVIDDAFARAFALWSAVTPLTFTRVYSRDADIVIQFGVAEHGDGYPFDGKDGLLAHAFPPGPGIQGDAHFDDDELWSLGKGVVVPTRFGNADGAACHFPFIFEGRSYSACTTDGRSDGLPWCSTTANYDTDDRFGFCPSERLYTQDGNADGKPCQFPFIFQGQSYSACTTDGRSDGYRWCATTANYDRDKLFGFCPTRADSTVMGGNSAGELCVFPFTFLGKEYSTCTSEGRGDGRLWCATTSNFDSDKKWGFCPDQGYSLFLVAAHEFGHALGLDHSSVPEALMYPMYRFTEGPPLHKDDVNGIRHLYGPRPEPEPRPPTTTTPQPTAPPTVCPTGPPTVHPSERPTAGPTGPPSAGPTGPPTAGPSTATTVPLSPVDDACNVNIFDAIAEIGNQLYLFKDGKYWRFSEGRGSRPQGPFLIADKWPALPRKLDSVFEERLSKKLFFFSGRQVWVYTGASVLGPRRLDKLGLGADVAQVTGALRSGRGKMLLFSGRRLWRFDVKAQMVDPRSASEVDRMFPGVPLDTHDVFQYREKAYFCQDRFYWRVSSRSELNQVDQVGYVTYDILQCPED

| Compound | LogD (compound labeled by [^99mTc]) [1] | IC50 [2, 7] [nM] | IC50 [3, 8] [nM] | IC50 [4, 9] [nM] | IC50 [5, 10] [nM] | IC50 [6, 11] [nM] | other results |
| --- | --- | --- | --- | --- | --- | --- | --- |
| N[C@@H](Cc1cn(CCOCCOCCOCCN2CCN(C3(c4ccc(Oc5ccccc5)cc4)C(=O)NC(=O)NC3=O)CC2)nn1)C(=O)[O][Re](=[C]=O)(=[C]=O)=[C]=O [MEA39, (S)-2-Amino-3-[1-(2-{2-[2-(2-{4-[2,4,6-trioxo-5-(4-phenoxyphenyl)-hexahydropyrimidine-5-yl]piperazine-1-yl}ethoxy)ethoxy]ethoxy}ethyl)-1H-1,2,3-triazol-4-yl]propionic acid-carbonyl rhenium(I)] | 0.79 ± 0.03 | 2 ± 0.3 | 2 ± 0.5 | 0.9 ± 0.1 | 5.9 ± 0.7 | 28 ± 7 |  |
| NCCCC[C@H](NCc1cn(CCOCCOCCOCCN2CCN(C3(c4ccc(Oc5ccccc5)cc4)C(=O)NC(=O)NC3=O)CC2)nn1)C(=O)[O-].O=[C]=[Re+](=[C]=O)=[C]=O [MEA61, {[1-(2-{2-[2-(2-{4-[2,4,6-Trioxo-5-(4-phenoxyphenyl)hexahydropyrimidin-5-yl]piperazin-1-yl}ethoxy)ethoxy]ethoxy}ethyl)-1H-1,2,3-triazol-4-yl]methyl}-L-lysinate tricarbonylrhenium(I)] | 0.35 ± 0.23 | 26 ± 0.6 | 3.6 ± 0.7 | 8 ± 0.5 | 14 ± 0.8 | 5.5 ± 0.4 |  |
| N[C@@H](Cc1cn(CCOCCOCCOCCN2CCN(C3(c4ccc(Oc5ccccc5)cc4)C(=O)NC(=O)NC3=O)CC2)nn1)C(=O)O [compound 14, (S)-2-Amino-3-[1-(2-{2-[2-(2-{4-[2,4,6-trioxo-5-(4-phenoxyphenyl)-hexahydropyrimidine-5-yl]piperazine-1-yl}ethoxy)ethoxy]ethoxy}ethyl)-1H-1,2,3-triazol-4-yl]propionic acid potassium salt] |  |  |  |  |  |  | IC50 ([2]; read-out: IC50 MMP-13, activated MMP 2 nM, 37 °C, 30 min preincubation, non-radioactive compound): 27 ± 9 nM; IC50 ([3]; read-out: IC50 MMP-2, activated MMP 2 nM, 37 °C, 30 min preincubation, non-radioactive compound): 0.6 ± 0.1 nM; IC50 ([4]; read-out: IC50 MMP-9, activated MMP 2 nM, 37 °C, 30 min preincubation, non-radioactive compound): 1.4 ± 0.3 nM; IC50 ([5]; read-out: IC50 MMP-14, activated MMP 2 nM, 37 °C, 30 min preincubation, non-radioactive compound): 1.5 ± 0.4 nM; IC50 ([6]; read-out: IC50 MMP-8, activated MMP 2 nM, 37 °C, 30 min preincubation, non-radioactive compound): 3.6 ± 2.6 nM |
| NCCCC[C@H](NCc1cn(CCOCCOCCOCCN2CCN(C3(c4ccc(Oc5ccccc5)cc4)C(=O)NC(=O)NC3=O)CC2)nn1)C(=O)O [compound 17, {[1-(2-{2-[2-(2-{4-[2,4,6-Trioxo-5-(4-phenoxyphenyl)hexahydropyrimidin-5-yl]piperazin-1-yl}ethoxy)ethoxy]ethoxy}ethyl)-1H-1,2,3-triazol-4-yl]methyl}-L-lysinate] |  |  |  |  |  |  | IC50 [2]: 58 ± 9 nM; IC50 [3]: 7 ± 3 nM; IC50 [4]: 10 ± 2 nM; IC50 [5]: 19 ± 2 nM; IC50 [6]: 18 ± 3 nM |
